One assay deals with blood pressure. Put plainly: Hypotensive (Hypo): blood pressure in conscious rats. In kind it is in vivo. The note with it: Rattus norvegicus, oral dose, read-out: Hypo rat MED.
For another assay, the system named is locomotor activity. Put plainly: Decreased Locomotor Activity (LMA), sedative. The note with it: for minimal effective dose: po, read-out: LMA mouse MED. In kind it is in vivo, mouse.
Assay [1] relates to conflict (approach-avoidance). Put plainly: Rat Conflict (Approach-Avoidance) Test (Conf), minor tranquilizer. In kind it is in vivo. As to conditions: for minor tranquilizing (anxiolytic) activity: in words.
In assay [2] the test system is conditioned avoidance response. Put plainly: Rat Conditioned Avoidance Response (CAR), major tranquilizer. It is filed as in vivo. The note with it: for ED50: po, read-out: CAR rat ED50.
Assay [3] deals with conflict (approach-avoidance). As to conditions: in words, background statement; cited from earlier work.
In assay [4] the test system is phenyl-p-benzoquinone writhing. Put plainly: Phenylquinone Writhing (PQW), analgesic. It is filed as in vivo. As to conditions: po, read-out: PQW mouse ED50.
For assay [5] the following is noted: U.S. Pat. No. 3,657,254; cited from earlier work.
Assay [6] has as its system pressor response to epinephrine and/or nor-epinephrine. Put plainly: Adrenergic Blockage (AB). The note with it: Canis lupus familiaris; intravenous, dog; read-out: AB dog MED. In kind it is in vivo.

The ED50 is the dose that gives a 50% effect, or the effect in half of the subjects.

Molecules are shown by their SMILES. Structures can show the parent of a compound that is named as a salt. Where two headings read alike, the source gives them in different places.

On to `c1ccc(N2c3ccccc3[C@@H]3CN(CC4CCC4)CC[C@H]32)cc1` [compound of Example 2, (+)-trans-2-(cyclobutylmethyl)-2,3,4,4a,5,9b-hexahydro-5-phenyl-1H-pyrido[4,3-b]indole], for which the minimal effective dose with blood pressure and with locomotor activity (Mus musculus) was 3 mg/kg each time. Further, in assay [1] (rat, in vivo, po), the “Conf rat MED” value is “I”. Further, in assay [2] (Rattus norvegicus), the ED50 was found to be 4 mg/kg. Moreover, the “major tranquilizing (antipsychotic) activity” value (shortened to “major tranquilizing”) in assay [2] (rat, in vivo) is listed as “major tranquilizer (antipsychotic) activity”.

As to `CCCC(C)(COC(N)=O)COC(N)=O` [meprobamate], in assay [3], the “effect in conflict test” value is “apparent decreased fear in the test animals”.

For the molecule `CC12CCC(CN3CC[C@@H]4[C@@H](C3)c3ccccc3N4c3ccccc3)(CC1)CC2` (relative stereo), in assay [4] (mouse), the 50% effective dose (ED50) was determined as 80 mg/kg. Further, the minimal effective dose with locomotor activity (mouse) amounted to 30 mg/kg.

For the molecule `CC(Cl)=CCN1CC[C@@H]2[C@@H](C1)c1ccccc1N2c1ccccc1` (relative stereo), the ED50 in assay [4] (mouse) was 2 mg/kg. In addition, the minimal effective dose in the assay on locomotor activity (mouse) came out at 1 mg/kg.

Consider `CC12C=CC(CN3CC[C@@H]4[C@@H](C3)c3ccccc3N4c3ccccc3)(CC1)CC2` (relative stereo), for which, in assay [4] (mouse), the ED50 amounted to 14 mg/kg. The minimal effective dose with locomotor activity (mouse) is 30 mg/kg.

In the case of `Cc1ccc2c(c1)[C@@H]1CN(C)CC[C@@H]1N2` (relative stereo) [2,8-dimethyl-2,3,4,4a,5,9b-hexahydro-1H-pyrido[4,3-b]]indole], in assay [5], the mechanism of action result is listed as “adrenergic blockade”; the psychotropic effects entry was “neuroleptic, antidepressive, and energizing effects”.

As for `C1=CCC(CN2CC[C@@H]3[C@@H](C2)c2ccccc2N3c2ccccc2)CC1` (relative stereo), the ED50 in assay [4] (mouse) amounted to 2 mg/kg. Further, the minimal effective dose with locomotor activity (mouse) worked out at 3 mg/kg.

On to `COc1ccc2c3c1O[C@H]1[C@@H](O)C=C[C@H]4[C@@H](C2)N(C)CC[C@@]341` [codeine phosphate, reference compound], for which the median effective dose (ED50) in assay [4] (Mus musculus) came to 19 mg/kg.

As to `c1ccc(CCN2CC[C@@H]3[C@@H](C2)c2ccccc2N3c2ccccc2)cc1` (relative stereo), the median effective dose (ED50) in assay [4] (mouse) came out at 2 mg/kg. For the same molecule, the minimal effective dose in the assay on locomotor activity (mouse) came to 10 mg/kg.

With `c1ccc(N2c3ccccc3[C@@H]3CN(C[C@H]4[C@@H]5CCCC[C@@H]54)CC[C@H]32)cc1` (relative stereo) [compound 9 of Table II, (±)-trans-2,3,4,4a,5,9b-hexahydro-2-(exo-7-norcarylmethyl)-5-phenyl-1H-pyrido[4,3-b]indole, hydrochloride], the ED50 in assay [4] (mouse) is 1 mg/kg. The reducing locomotor activity result in the assay on locomotor activity (in words) is “potency in reducing locomotor activity”. In the assay with locomotor activity (mouse), the minimal effective dose turned out to be 0.1 mg/kg.

Consider `CC(=O)Oc1ccccc1C(=O)O` [aspirin, reference compound], for which the ED50 in assay [4] (Mus musculus) stood at 94 mg/kg.

For the molecule `Cl.c1ccc(N2c3ccccc3[C@@H]3CN(CC4C5CC6CC(C5)CC4C6)CC[C@H]32)cc1` (mixture of isomers) [compound 14 of Table II, (±)-trans-2-(2-adamantylmethyl)-2,3,4,4a,5,9b-hexahydro-5-phenyl-1H-pyrido[4,3-b]indole, hydrochloride], the median effective dose (ED50) in assay [4] (mouse) amounted to 27 mg/kg. Further, the minimal effective dose with locomotor activity (mouse) turned out to be 2 mg/kg. Also, the “minor tranquilizing (anxiolytic) activity” value in assay [1] is recorded as “exhibit minor tranquilizing (anxiolytic) activity at doses which are not sedating”. For the same molecule, the “Conf rat, active dose” value in assay [1] (po, rat, ** active at this dose, MED not yet determined) came out at 10 mg/kg. Further, the “major tranquilizing” value in assay [2] (in words) is “exhibit major tranquilizing (antipsychotic) activity”.

Take `CN1C(=O)CN=C(c2ccccc2)c2cc(Cl)ccc21` [diazepam, reference compound]: the minimal effective dose is 3 to 10 mg/kg in the assay with locomotor activity (Mus musculus); 3 to 10 mg/kg in assay [1] (Rattus norvegicus, po, read-out: Conf rat MED, with ataxia); 3 to 10 mg/kg in assay [1] (Rattus norvegicus, po, read-out: Rat Conf.). In assay [3], the “effect in conflict test” value is given as “apparent decreased fear in the test animals”.

Take `c1ccc(N2c3ccccc3[C@@H]3CN(CC4CCCCC4)CC[C@H]32)cc1` (relative stereo): the results for the minimal effective dose (with blood pressure; in the assay with locomotor activity (mouse); in assay [6]) were 10 mg/kg, 3 mg/kg and 0.03 mg/kg, respectively. Also, the median effective dose (ED50) in assay [4] (mouse) stood at 4 mg/kg; in assay [2] (rat) it was 20 mg/kg. Moreover, the “Conf rat MED” value in assay [1] (po, rat) was “I”.

Regarding `Cl.c1ccc(N2c3ccccc3[C@@H]3CN(CC45CC6CC(CC(C6)C4)C5)CC[C@H]32)cc1` (racemic) [compound 4 of Table II, (±)-trans-2-(1-adamantylmethyl)-2,3,4,4a,5,9b-hexahydro-5-phenyl-1H-pyrido[4,3-b]indole, hydrochloride], the ED50 in assay [4] (mouse) turned out to be 19 mg/kg; in assay [2] (rat), 50 mg/kg. Also, the minimal effective dose in the assay on locomotor activity (mouse) was 30 mg/kg; in assay [6] it was over 1 mg/kg; in assay [1] (po, rat, read-out: Conf rat MED), 10 mg/kg; in assay [1] (po, rat, comparison table, read-out: Rat Conf.), 10 mg/kg. Moreover, in assay [1], the “minor tranquilizing (anxiolytic) activity” value is on record as “exhibit minor tranquilizing (anxiolytic) activity at doses which are not sedating”. In addition, the “major tranquilizing” value in assay [2] (in words) is “exhibit major tranquilizing (antipsychotic) activity”.

As for `c1ccc(N2c3ccccc3[C@@H]3CN(CC4CCCC4)CC[C@H]32)cc1` (racemic) [compound 2 of Table II, (±)-trans-2-(cyclopentylmethyl)-2,3,4,4a,5,9b-hexahydro-5-phenyl-1H-pyrido[4,3-b]indole], the minimal effective dose is 10 mg/kg in the assay with blood pressure, 10 mg/kg with locomotor activity (mouse) and 0.03 mg/kg in assay [6]. In addition, the ED50 in assay [4] (mouse) turned out to be 1 mg/kg; in assay [2] (rat), 5 mg/kg. Besides, the “Conf rat MED” value in assay [1] (po, rat) is listed as “I”. Further, in assay [2] (in words), the “major tranquilizing” value is “major tranquilizer (antipsychotic) activity”.

Consider `CN(C)CCCN1c2ccccc2Sc2ccc(Cl)cc21` [chlorpromazine, reference compound], for which the minimal effective dose in the assay on locomotor activity (Mus musculus) fell in the range of 2 to 10 mg/kg. Also, the “Conf rat MED” value in assay [1] (rat, in vivo, po) is listed as “I”. Besides, the ED50 in assay [2] (Rattus norvegicus) is 6 mg/kg.

Source of the values: patent US3991199A, “Pyridoindoles” (Endo Laboratories, Inc., priority 1974, dated 1976).
